Experimental data: PubChem BioAssay AID1845207 (Molecular Pharmacology Branch, DTP, NCI, 2023)

Test system: NCI-H1876 tumor spheroid viability
Assay: Anticancer human tumor NCI-H1876 cell line growth inhibition;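 also: spheroids exposed to compounds for seven days before the viability read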;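 as to viability, T/C: percent of DMSO vehicle control viability so 100% = vehicle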
Settings: spheroids with HUVEC and MSC; for IC50: curve of first compound; for viability, T/C: stronger effect = lower value
Text: Multicellular complex tumor spheroid response to DNA repair inhibitors in combination with DNA-damaging drugs
This study explores the anticancer activities of DNA-damaging drugs and inhibitors of DNA damage repair, both as single agents and in combinations. Complex tumor spheroids comprised of malignant cells, endothelial cells and mesenchymal stem cells served as an in vitro model for human solid tumors. This model system incorporates physiologically relevant features and patient-derived or established malignant cell lines with clinically relevant genetic alterations from many tumor types. Twenty-six patient-derived or established malignant cell lines were evaluated representing sarcoma, melanoma, small cell lung cancer (SCLC), non-small cell lung cancer (NSCLC), as well as bladder, ovarian and pancreatic cancers. The concentration ranges selected for each drug and investigational agent were based upon clinically achievable concentrations if the clinical Cmax of the agent was known.
Compounds. The drugs and compounds olaparib (NSC753686), talazoparib (NSC767125), berzosertib (NSC777718), elimusertib (NSC800525), nedisertib (NSC802822), VX-984 (NSC792969), AZD-1390 (NSC803789), temozolomide (NSC362856), topotecan (NSC609699), trabectedin (NSC813783), staurosporine (NSC755774), and gemcitabine (NSC613327) were obtained from the National Cancer Institute (NCI) Developmental Therapeutics Program Chemical Repository. The FDA-approved anticancer drug set is available from the Developmental Therapeutics Program at https://dtp.cancer.gov/organization/dscb/obtaining/available_plates.htm. […] The stock solutions were prepared in dimethyl sulfoxide (DMSO, Sigma-Aldrich, St. Louis, MO, cat. D2650) at 400-fold the tested concentration and stored at -70 degrees C. Prior to their use, the stock solutions were diluted in fresh medium and the final DMSO concentration in the assay was 0.25% (v/v). All drugs and investigational agents were tested over a range starting from a high concentration at or near the clinical Cmax and decreasing in half-log increments. If the clinical Cmax for an agent had not been determined, the highest concentration tested was 10 microM.
Cell Lines. The patient-derived cancer cell (PDC) lines: 156681-154-R-J1-PDC, 283228-195-R-J1-PDC, 287954-098-R-J1-PDC, 292921-168-R-J2-PDC, 349418-098-R-PDC, 425362-245-T-J1-PDC, 556581-035-R-J1-PDC, and BL0293-F563-PDC were received from the NCI Patient-Derived Models Repository (PDMR, https://pdmr.cancer.gov). The established cell lines HS-SY-2 (RRID:CVCL_8719), MPNST, and SYO-1 (RRID:CVCL_7146) were obtained from the Sloan Kettering Institute. The alveolar soft parts sarcoma cell line ASPS-1 (RRID:CVCL_S738) was established at the NCI and grown from internal seed stocks. The following established cell lines were purchased from the American Type Culture Collection (ATCC, Manassas, VA): G-401 (ATCC, cat. CRL-1441, RRID:CVCL_0270), SW982 (ATCC, cat. HTB-93, RRID:CVCL_1734), VA-ES-BJ (ATCC, cat. CRL-2138, RRID:CVCL_1785), NCI-H719 (ATCC, cat. CRL-5837, RRID:CVCL_1582), NCI-H196 (ATCC, cat. CRL-5823, RRID:CVCL_1509), NCI-H841 (ATCC, cat. CRL-5845, RRID:CVCL_1595), NCI-H1618 (ATCC, cat. CRL-5879, RRID:CVCL_1480), NCI-H1876 (ATCC, cat. CRL-5902, RRID:CVCL_1503), DMS 114 (ATCC, cat. CRL-2066; RRID:CVCL_1174), NCI-H211 (ATCC, cat. CRL-5824; RRID:CVCL_1529), and SW 1271 (ATCC, cat. CRL-2177, RRID:CVCL_1716). The small cell lung cancer cell line COR-L88 was purchased from Sigma-Aldrich (cat. 92031917-1VL, RRID:CVCL_1141). The non-small cell lung cancer cell lines NCI-H226 (RRID:CVCL_1544) and NCI-H322M (RRID:CVCL_1557) were established at the NCI and grown from internal seed stocks. Pooled donor human umbilical vein endothelial cells (HUVEC, Lonza, cat. CC-2519) and human mesenchymal stem cells (hMSC, Lonza, cat. PT-2501) were purchased from Lonza (Walkersville, MD).
Cell Culture. All cells were maintained in an incubator at 37 degrees C and 5% CO2 with 95% humidity. […]

[2H]c1nc(C)nc([2H])c1-c1cc(NC[C@@H](C)c2cccc3c(C(=O)NC)ccnc23)ncn1 + COc1cc2c(cc1O)CCNC21CSC2c3c(OC(C)=O)c(C)c4c(c3C(COC1=O)N1C(O)C3Cc5cc(C)c(OC)c(O)c5C(C21)N3C)OCO4
IC50 (second compound 30 pM): > 10000 nM
IC50 (second compound 94.9 pM): > 10000 nM
IC50 (second compound 0.0003 µM): < 31.6 nM
IC50 (second compound 0.000949 µM): < 31.6 nM
IC50 (second compound 0.003 µM): < 31.6 nM
viability, T/C (second compound 30 pM, first compound 0.0316 µM): 102%
viability, T/C (second compound 30 pM, first compound 0.1 µM): 101%
viability, T/C (second compound 30 pM, first compound 0.316 µM): 101%
viability, T/C (second compound 30 pM, first compound 1 µM): 101%
viability, T/C (second compound 30 pM, first compound 3.16 µM): 100%
viability, T/C (second compound 30 pM, first compound 10 µM): 98%
viability, T/C (second compound 94.9 pM, first compound 0.0316 µM): 90.8%
viability, T/C (second compound 94.9 pM, first compound 0.1 µM): 94.2%
viability, T/C (second compound 94.9 pM, first compound 0.316 µM): 94.6%
viability, T/C (second compound 94.9 pM, first compound 1 µM): 94.5%
viability, T/C (second compound 94.9 pM, first compound 3.16 µM): 93.9%
viability, T/C (second compound 94.9 pM, first compound 10 µM): 85.7%
viability, T/C (second compound 0.0003 µM, first compound 0.0316 µM): 31%
viability, T/C (second compound 0.0003 µM, first compound 0.1 µM): 32.2%
viability, T/C (second compound 0.0003 µM, first compound 0.316 µM): 35.5%
viability, T/C (second compound 0.0003 µM, first compound 1 µM): 30%
viability, T/C (second compound 0.0003 µM, first compound 3.16 µM): 31.6%
viability, T/C (second compound 0.0003 µM, first compound 10 µM): 21.6%
viability, T/C (second compound 0.000949 µM, first compound 0.0316 µM): 3.38%
viability, T/C (second compound 0.000949 µM, first compound 0.1 µM): 2.4%
viability, T/C (second compound 0.000949 µM, first compound 0.316 µM): 2.32%
viability, T/C (second compound 0.000949 µM, first compound 1 µM): 2.39%
viability, T/C (second compound 0.000949 µM, first compound 3.16 µM): 2.46%
viability, T/C (second compound 0.000949 µM, first compound 10 µM): 3.2%
viability, T/C (second compound 0.003 µM, first compound 0.0316 µM): 0.5%
viability, T/C (second compound 0.003 µM, first compound 0.1 µM): 0.64%
viability, T/C (second compound 0.003 µM, first compound 0.316 µM): 0.5%
viability, T/C (second compound 0.003 µM, first compound 1 µM): 0.66%
viability, T/C (second compound 0.003 µM, first compound 3.16 µM): 0.74%
viability, T/C (second compound 0.003 µM, first compound 10 µM): 0.7%
